≈ marks a conversion by molar mass, not a printed value.
Columns and labels:
Escherichia coli [1] = assay: Antimicrobial activity against Escherichia coli DH10B expressing GIL1 after 18 hrs by […]; format: functional
Citrobacter gillenii = assay: Antimicrobial activity against Citrobacter gillenii CIP 106783 after 18 hrs by […]; format: functional; conditions: CIP 106783, 18 h
[2] = target: T1, Gil1 (Citrobacter gillenii) (UniProt A4KCT8); assay: Ratio of kcat to Km of Citrobacter gillenii CIP 106783 Beta-lactamase GIL1 expressed in Escherichia coli DH10B relative to benzyl-penicillin; parameters: unit not given here
T1 sequence (whole entry): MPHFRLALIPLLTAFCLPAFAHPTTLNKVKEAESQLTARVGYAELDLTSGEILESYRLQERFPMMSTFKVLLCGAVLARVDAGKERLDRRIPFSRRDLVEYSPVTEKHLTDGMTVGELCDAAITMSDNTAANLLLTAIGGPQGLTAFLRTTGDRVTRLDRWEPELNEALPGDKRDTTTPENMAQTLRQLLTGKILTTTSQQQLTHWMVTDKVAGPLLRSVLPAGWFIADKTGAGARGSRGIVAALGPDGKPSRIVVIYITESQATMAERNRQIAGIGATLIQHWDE

Escherichia coli [3] = assay: Antimicrobial activity against Escherichia coli DH10B after 18 hrs by […]; format: functional
[4] = substrate: CC(=O)OCC1=C(C(=O)O)N2C(=O)[C@@H](NC(=O)Cc3cccs3)[C@H]2SC1; assay: (§1) Activity of Citrobacter gillenii CIP 106783 Beta-lactamase GIL1 expressed in Escherichia coli DH10B
[5] = substrate: CC(C)(O/N=C(\C(=O)N[C@@H]1C(=O)N2C(C(=O)[O-])=C(C[n+]3ccccc3)CS[C@H]12)c1csc(N)n1)C(=O)O; assay: as §1
[6] = substrate: CC1(C)S[C@@H]2[C@H](NC(=O)Cc3ccccc3)C(=O)N2[C@H]1C(=O)O; assay: as §1
[7] = substrate: CC1(C)S[C@@H]2[C@H](NC(=O)[C@H](C(=O)O)c3ccsc3)C(=O)N2[C@H]1C(=O)O; assay: as §1
[8] = substrate: CC1(C)S[C@@H]2[C@H](NC(=O)[C@H](N)c3ccc(O)cc3)C(=O)N2[C@H]1C(=O)O; assay: as §1
[9] = substrate: CCN1CCN(C(=O)N[C@@H](C(=O)N[C@@H]2C(=O)N3[C@@H]2SC(C)(C)[C@@H]3C(=O)O)c2ccccc2)C(=O)C1=O; assay: as §1
[10] = substrate: CO/N=C(\C(=O)N[C@@H]1C(=O)N2C(C(=O)O)=C(COC(C)=O)CS[C@H]12)c1csc(N)n1; assay: as §1
[11] = substrate: CO/N=C(\C(=O)N[C@@H]1C(=O)N2C(C(=O)O)=C(COC(N)=O)CS[C@H]12)c1ccco1; assay: as §1
[12] = substrate: CO/N=C(\C(=O)N[C@@H]1C(=O)N2C(C(=O)[O-])=C(C[N+]3(C)CCCC3)CS[C@H]12)c1csc(N)n1; assay: as §1
[13] = substrate: CO/N=C(\C(=O)N[C@@H]1C(=O)N2C(C(=O)[O-])=C(C[n+]3cccc4c3CCC4)CS[C@H]12)c1csc(N)n1; assay: as §1
[14] = substrate: C[C@@H](O)[C@H]1C(=O)N2C(C(=O)O)=C(SCCNC=N)C[C@H]12; assay: as §1
[15] = substrate: C[C@H]1[C@H](NC(=O)/C(=N\OC(C)(C)C(=O)O)c2csc(N)n2)C(=O)N1S(=O)(=O)O; assay: as §1

## CO/N=C(\C(=O)N[C@@H]1C(=O)N2C(C(=O)[O-])=C(C[N+]3(C)CCCC3)CS[C@H]12)c1csc(N)n1
Escherichia coli [1]
  MIC: 0.12 µg/mL (≈ 0.25 µM)
Citrobacter gillenii
  MIC: 0.06 µg/mL (≈ 0.125 µM)
[2]
  Ratio: 0.5

## C[C@@H](O)[C@H]1C(=O)N2C(C(=O)O)=C(SCCNC=N)C[C@H]12 [IMIPENEM ANHYDROUS]
Citrobacter gillenii
  MIC: 0.06 µg/mL (≈ 0.2 µM)
[2]
  Ratio: < 0.01

## CC1(C)S[C@@H]2[C@H](NC(=O)[C@H](C(=O)O)c3ccsc3)C(=O)N2[C@H]1C(=O)O [TICARCILLIN]
Escherichia coli [1]
  MIC: > 512 µg/mL
Citrobacter gillenii
  MIC: 64 µg/mL (≈ 166 µM)
Escherichia coli [3]
  MIC: 1 µg/mL (≈ 2.6 µM)
[2]
  Ratio: 180

## CO/N=C(\C(=O)N[C@@H]1C(=O)N2C(C(=O)O)=C(COC(C)=O)CS[C@H]12)c1csc(N)n1 [CEFOTAXIME]
Escherichia coli [1]
  MIC: 1 µg/mL (≈ 2.2 µM)
Citrobacter gillenii
  MIC: 0.06 µg/mL (≈ 0.132 µM)
Escherichia coli [3]
  MIC: 0.06 µg/mL (≈ 0.132 µM)
[2]
  Ratio: 0.2

## CC1(C)S[C@@H]2[C@H](NC(=O)[C@H](N)c3ccc(O)cc3)C(=O)N2[C@H]1C(=O)O [AMOXICILLIN]
Escherichia coli [1]
  MIC: > 512 µg/mL
Citrobacter gillenii
  MIC: 16 µg/mL (≈ 43.8 µM)
Escherichia coli [3]
  MIC: 2 µg/mL (≈ 5.47 µM)
[2]
  Ratio: 81

## CCN1CCN(C(=O)N[C@@H](C(=O)N[C@@H]2C(=O)N3[C@@H]2SC(C)(C)[C@@H]3C(=O)O)c2ccccc2)C(=O)C1=O [PIPERACILLIN]
Escherichia coli [1]
  MIC: 32 µg/mL (≈ 61.8 µM)
Citrobacter gillenii
  MIC: 2 µg/mL (≈ 3.86 µM)
Escherichia coli [3]
  MIC: 1 µg/mL (≈ 1.93 µM)
[2]
  Ratio: 61

## CC(C)(O/N=C(\C(=O)N[C@@H]1C(=O)N2C(C(=O)[O-])=C(C[n+]3ccccc3)CS[C@H]12)c1csc(N)n1)C(=O)O [CEFTAZIDIME]
Escherichia coli [1]
  MIC: 0.5 µg/mL (≈ 0.915 µM)
Citrobacter gillenii
  MIC: 0.06 µg/mL (≈ 0.11 µM)
Escherichia coli [3]
  MIC: 0.06 µg/mL (≈ 0.11 µM)
[2]
  Ratio: 0.01

## CO/N=C(\C(=O)N[C@@H]1C(=O)N2C(C(=O)O)=C(COC(N)=O)CS[C@H]12)c1ccco1 [CEFUROXIME]
Escherichia coli [1]
  MIC: 8 µg/mL (≈ 18.9 µM)
Citrobacter gillenii
  MIC: 2 µg/mL (≈ 4.71 µM)
Escherichia coli [3]
  MIC: 2 µg/mL (≈ 4.71 µM)
[2]
  Ratio: 0.4

## CO/N=C(\C(=O)N[C@@H]1C(=O)N2C(C(=O)O)=C(CSc3nc(=O)c(O)nn3C)CS[C@H]12)c1csc(N)n1 [CEFTRIAXONE]
Escherichia coli [1]
  MIC: 0.06 µg/mL (≈ 0.108 µM)
Citrobacter gillenii
  MIC: 0.06 µg/mL (≈ 0.108 µM)
Escherichia coli [3]
  MIC: 0.06 µg/mL (≈ 0.108 µM)

## CC(=O)OCC1=C(C(=O)O)N2C(=O)[C@@H](NC(=O)Cc3cccs3)[C@H]2SC1 [CEPHALOTHIN]
Escherichia coli [1]
  MIC: 8 µg/mL (≈ 20.2 µM)
Citrobacter gillenii
  MIC: 2 µg/mL (≈ 5.04 µM)
Escherichia coli [3]
  MIC: 2 µg/mL (≈ 5.04 µM)
[2]
  Ratio: 11

## CC1(C)S[C@@H]2[C@H](NC(=O)Cc3ccccc3)C(=O)N2[C@H]1C(=O)O
[2]
  Ratio: 100

## CO/N=C(\C(=O)N[C@@H]1C(=O)N2C(C(=O)[O-])=C(C[n+]3cccc4c3CCC4)CS[C@H]12)c1csc(N)n1 [CEFPIROME]
Escherichia coli [1]
  MIC: 0.25 µg/mL (≈ 0.486 µM)
Citrobacter gillenii
  MIC: 0.06 µg/mL (≈ 0.117 µM)
Escherichia coli [3]
  MIC: 0.06 µg/mL (≈ 0.117 µM)
[2]
  Ratio: 1.9

## CO[C@@]1(NC(=O)C(C(=O)O)c2ccc(O)cc2)C(=O)N2C(C(=O)O)=C(CSc3nnnn3C)CO[C@@H]21 (stereo partly specified) [MOXALACTAM]
Escherichia coli [1]
  MIC: 0.25 µg/mL (≈ 0.48 µM)
Citrobacter gillenii
  MIC: 0.12 µg/mL (≈ 0.231 µM)
Escherichia coli [3]
  MIC: 0.12 µg/mL (≈ 0.231 µM)

## C[C@H]1[C@H](NC(=O)/C(=N\OC(C)(C)C(=O)O)c2csc(N)n2)C(=O)N1S(=O)(=O)O [AZTREONAM]
Escherichia coli [1]
  MIC: 0.12 µg/mL (≈ 0.276 µM)
Citrobacter gillenii
  MIC: 0.06 µg/mL (≈ 0.138 µM)
[2]
  Ratio: 0.02

## CO[C@@]1(NC(=O)Cc2cccs2)C(=O)N2C(C(=O)O)=C(COC(N)=O)CS[C@@H]21 [CEFOXITIN]
Escherichia coli [1]
  MIC: 2 µg/mL (≈ 4.68 µM)
Citrobacter gillenii
  MIC: 1 µg/mL (≈ 2.34 µM)
Escherichia coli [3]
  MIC: 2 µg/mL (≈ 4.68 µM)

B1: Gil1 (Citrobacter gillenii), A4KCT8 (protein)
chain: MPHFRLALIPLLTAFCLPAFAHPTTLNKVKEAESQLTARVGYAELDLTSGEILESYRLQERFPMMSTFKVLLCGAVLARVDAGKERLDRRIPFSRRDLVEYSPVTEKHLTDGMTVGELCDAAITMSDNTAANLLLTAIGGPQGLTAFLRTTGDRVTRLDRWEPELNEALPGDKRDTTTPENMAQTLRQLLTGKILTTTSQQQLTHWMVTDKVAGPLLRSVLPAGWFIADKTGAGARGSRGIVAALGPDGKPSRIVVIYITESQATMAERNRQIAGIGATLIQHWDE
[4]
  Km: 62 µM
  kcat: 37 s⁻¹
  kcat/Km: 598000 M⁻¹ s⁻¹
[5]
  Km: 1750 µM
  kcat: 1 s⁻¹
  kcat/Km: 600 M⁻¹ s⁻¹
[6]
  Km: 51 µM
  kcat: 286 s⁻¹
  kcat/Km: 5.6e+06 M⁻¹ s⁻¹
[7]
  Km: 10 µM
  kcat: 100 s⁻¹
  kcat/Km: 1e+07 M⁻¹ s⁻¹
[8]
  Km: 84 µM
  kcat: 381 s⁻¹
  kcat/Km: 4.54e+06 M⁻¹ s⁻¹
[9]
  Km: 90 µM
  kcat: 306 s⁻¹
  kcat/Km: 3.4e+06 M⁻¹ s⁻¹
[10]
  Km: 714 µM
  kcat: 7 s⁻¹
  kcat/Km: 10000 M⁻¹ s⁻¹
[11]
  Km: 88 µM
  kcat: 2 s⁻¹
  kcat/Km: 23000 M⁻¹ s⁻¹
[12]
  Km: 2680 µM
  kcat: 77 s⁻¹
  kcat/Km: 29000 M⁻¹ s⁻¹
[13]
  Km: 304 µM
  kcat: 32 s⁻¹
  kcat/Km: 106000 M⁻¹ s⁻¹
[14]
  Km: 2980 µM
  kcat: 0.2 s⁻¹
  kcat/Km: 500 M⁻¹ s⁻¹
[15]
  Km: 938 µM
  kcat: 0.8 s⁻¹
  kcat/Km: 1000 M⁻¹ s⁻¹

Source: ChEMBL document CHEMBL1147095, “Chromosome-encoded narrow-spectrum Ambler class A beta-lactamase GIL-1 from Citrobacter gillenii” (Antimicrob Agents Chemother, 2007)
